Source: ChEMBL document CHEMBL1201862, “PubChem BioAssay data set” (2004)
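Cells were grown in 96-well plates and exposed to each compound for 48 hours at five concentrations; endpoints were interpolated linearly between bracketing concentrations, or set to the highest concentration if not reached. At the GI50, growth is halved.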 Activity calls are given as the source filed them. Cut-off read from the data, not from the text of the source: active = GI50 up to about 1.1 µM and inactive = higher.

Columns and labels:
Test in all cases: NCI tumour cell line growth inhibition, 48 h
HCC 2998 = system: HCC 2998
SR = system: SR
NCI-H522 = system: NCI-H522
SW-620 = system: SW-620
HOP-92 = system: HOP-92
SNB-19 = system: SNB-19
SF-295 = system: SF-295
SF-539 = system: SF-539
OVCAR-3 = system: OVCAR-3
CAKI-1 = system: CAKI-1
SK-MEL-2 = system: SK-MEL-2
MOLT-4 = system: MOLT-4
HCT-116 = system: HCT-116
HL-60 = system: HL-60
MDA-MB-231 = system: MDA-MB-231
DU-145 = system: DU-145
RPMI-8226 = system: RPMI-8226
MCF7 = system: MCF7
LOX IMVI = system: LOX IMVI

| SMILES | GI50 (HCC 2998) | GI50 (SR) | GI50 (NCI-H522) | GI50 (SW-620) | GI50 (HOP-92) | GI50 (SNB-19) | GI50 (SF-295) | GI50 (SF-539) | GI50 (OVCAR-3) | GI50 (CAKI-1) | GI50 (SK-MEL-2) | GI50 (MOLT-4) | GI50 (HCT-116) | GI50 (HL-60) | GI50 (MDA-MB-231) | GI50 (DU-145) | GI50 (RPMI-8226) | GI50 (MCF7) | GI50 (LOX IMVI) |
| --- | --- | --- | --- | --- | --- | --- | --- | --- | --- | --- | --- | --- | --- | --- | --- | --- | --- | --- | --- |
| Cc1cccc(NC(=O)CC2C(=O)Nc3ccccc3S2(=O)=O)c1C (configuration not stated) | 28.1 µM (inactive) | 11.1 µM (inactive) | 16.6 µM (inactive) | 28.2 µM (inactive) | 19.1 µM (inactive) | 32.1 µM (inactive) | 58.1 µM (inactive) | 19.8 µM (inactive) | 21.7 µM (inactive) | 66.8 µM (inactive) | 23.4 µM (inactive) | 47.9 µM (inactive) | 17.2 µM (inactive) | 23.3 µM (inactive) | – | – | – | – | – |
| CCOC(=O)/C(C#N)=C(/NS(=O)(=O)c1cc(C)c(Cl)cc1[S-])[n+]1ccc(N(C)C)cc1 | > 100 µM (inactive) | > 100 µM (inactive) | > 100 µM (inactive) | – | 27.4 µM (inactive) | > 100 µM (inactive) | > 100 µM (inactive) | > 100 µM (inactive) | > 100 µM (inactive) | > 100 µM (inactive) | > 100 µM (inactive) | > 100 µM (inactive) | > 100 µM (inactive) | > 100 µM (inactive) | > 100 µM (inactive) | > 100 µM (inactive) | > 100 µM (inactive) | > 100 µM (inactive) | – |
| CCOC(=O)c1nc2cc(C(F)(F)F)ccc2nc1Nc1ccc(C(=O)OC)s1 | 36.1 µM (inactive) | 15.5 µM (inactive) | 19.7 µM (inactive) | 49.1 µM (inactive) | 17.9 µM (inactive) | 33.1 µM (inactive) | 43 µM (inactive) | – | 19.3 µM (inactive) | 31.3 µM (inactive) | 19.4 µM (inactive) | 27.1 µM (inactive) | 35.3 µM (inactive) | 38 µM (inactive) | 23.6 µM (inactive) | 54.6 µM (inactive) | 30.7 µM (inactive) | – | 30.5 µM (inactive) |
| CC(=O)Nc1ccc2nc(-c3cccc(Cl)c3)cc(O)c2c1 | 8.38 µM (inactive) | 5.37 µM (inactive) | 3.1 µM (inactive) | 4.41 µM (inactive) | 4.85 µM (inactive) | 7.62 µM (inactive) | – | 4.71 µM (inactive) | – | – | – | 5.35 µM (inactive) | – | 8.34 µM (inactive) | 0.863 µM (active) | – | 66.1 µM (inactive) | 3.77 µM (inactive) | – |
| COc1cc(Br)c(/C=N\c2cccc3ccc(OS(=O)(=O)c4ccc([N+](=O)[O-])cc4)cc23)cc1OC | 36.4 µM (inactive) | > 100 µM (inactive) | 48 µM (inactive) | > 100 µM (inactive) | 47.3 µM (inactive) | 63.4 µM (inactive) | 5.06 µM (inactive) | > 100 µM (inactive) | > 100 µM (inactive) | 6.19 µM (inactive) | > 100 µM (inactive) | > 100 µM (inactive) | > 100 µM (inactive) | – | – | – | > 100 µM (inactive) | – | 6.59 µM (inactive) |
| COc1ccc2c(c1)-c1c(c3cc(OC)ccc3n1CCN1CCOCC1)CC2 | 1.76 µM (inactive) | 3.94 µM (inactive) | 23.3 µM (inactive) | 33.7 µM (inactive) | 24.4 µM (inactive) | – | 18.9 µM (inactive) | 28.4 µM (inactive) | 46.1 µM (inactive) | 44.2 µM (inactive) | 55.2 µM (inactive) | 11.9 µM (inactive) | 27.2 µM (inactive) | – | 34.4 µM (inactive) | 37.8 µM (inactive) | 20.5 µM (inactive) | 29 µM (inactive) | – |
| Cc1cc(C)c2c(n1)S(=O)(=O)N(CCCN1CCN(c3cccc(Cl)c3)CC1)C(C(=O)c1ccc(Br)cc1)=C2O | – | 13.4 µM (inactive) | 20.5 µM (inactive) | 34.1 µM (inactive) | 20.7 µM (inactive) | 20.9 µM (inactive) | 18.9 µM (inactive) | 20.7 µM (inactive) | 16.8 µM (inactive) | 6.9 µM (inactive) | 20.5 µM (inactive) | 10.6 µM (inactive) | 19.1 µM (inactive) | 14.3 µM (inactive) | 37.7 µM (inactive) | 26.4 µM (inactive) | – | 25.7 µM (inactive) | 6.81 µM (inactive) |
| Cc1csc2nc(-c3cc([N+](=O)[O-])c(Cl)cc3Cl)c(/C=N/N=C(N)N)n12 | 7.19 µM (inactive) | 0.0678 µM (active) | 15.9 µM (inactive) | 17.2 µM (inactive) | 14.4 µM (inactive) | 19.8 µM (inactive) | 17.8 µM (inactive) | 18.7 µM (inactive) | 17 µM (inactive) | 15.6 µM (inactive) | 13.4 µM (inactive) | 0.0986 µM (active) | 16.7 µM (inactive) | 13.5 µM (inactive) | 14.8 µM (inactive) | 16.7 µM (inactive) | 16.7 µM (inactive) | 15.3 µM (inactive) | 16.7 µM (inactive) |
| N#Cc1ccccc1/C=N/O | > 100 µM (inactive) | > 100 µM (inactive) | > 100 µM (inactive) | > 36.9 µM (inactive) | > 100 µM (inactive) | > 100 µM (inactive) | > 100 µM (inactive) | > 100 µM (inactive) | > 100 µM (inactive) | > 100 µM (inactive) | – | > 100 µM (inactive) | > 44.2 µM (inactive) | > 44.4 µM (inactive) | – | – | > 42.2 µM (inactive) | – | > 100 µM (inactive) |
